Values joined by “and” are separate entries in the source; they are usually repeats but may differ in a detail not shown here. Equal values may be shown once.
Test system: 5xFAD mice
Test: Morris water maze in 5xFAD mice
Type: in vivo, mouse
Conditions: for MWM escape latency (individual mice): 5xFAD 1 month
Experimental: We next aimed to test the effect of QR2 inhibition in AD model mice using YB-537, taking advantage of its extremely high specificity, solubility, and lack of toxicity. First, we determined YB-537 pharmacokinetics (PK) and oral bioavailability and assessed any acute observable toxicity in mice. […] We therefore opted to chronically deliver YB-537 to AD-model mice via their drinking water, so they may freely ingest the inhibitor at 50 mg/kg, with minimal intervention or trauma, for 1 month. We chose 9-month-old 5xFAD ([27]) male and female mice in double-blind experiments, so that well-progressed symptoms and pathologies would be present, to mimic clinically relevant cases in human patients ([35]), as has been previously described in this mouse model. Other than an improvement in nest quality ([36]) over time seen in animals receiving YB-537 (starting at age 8 months and ending at age 9 months), no changes to general physical parameters or wellbeing were observed over the 1 month of YB-537 ingestion (Supplemental Figure 6, A–J). Animals received the treatment for a week, and, on week 2, behavioral experiments commenced, including Morris water maze (MWM) and novel object recognition (NOR). These were carried out in parallel, with half of the animals (including both sexes and treatments) undergoing 1 of the paradigms in week 2, and the other in week 3. […] Since learning in this paradigm was slow, and performance was poor even following 6 days of training (using 4 learning trials a day), a test day was not carried out and instead only the learning rate was measured. […] Finally, during week 4, all the mice underwent DFC.
MWM was carried out as previously described ([57]). Mice were trained 4 times a day, using 60 second trials every 30 minutes during which they were placed into the pool, each time from a different quadrant, and allowed to swim to find the escape platform. All trials were filmed with a video tracking system using EthoVision 14 (Noldus Information Technology), and escape latency, or time to find the submerged escape platform, was determined by video analysis. […]
Morri s wat er maze ( MWM) was carried out as previously described(58). At the sam e time each consecutive day, mice were placed in the dimly lit room containing the maze for 10 min, within cages containing dry bedding (not the home cages). The maze was obscured by a non-light- permeable curtain. The maze consisted of a 1.2 m pool, with RT (21- 23 °C) water colored light grey, to hide the submerged (under 1- 2 cm) transparent, 10 cm in diam et er plastic escape platform, which was placed at t he south- western quadrant of the pool. Mi ce wer e trained 4 times a day, using 60 s trials ever y 30 min during which t he y were pl a c ed into t he pool, each time fr om a di fferent quadrant, and allowed to swim and find t he escape platform. Upon reaching t he platform, m ice were removed fr om t he pool. If the mice f ai led to find the […] within 60 s, […]
they were carefully placed on the escape platform and held there for 15 s prior to being taken out of the pool. All trials were filmed with a video tracking system using EthoVision 14 (Noldus Information Technology), andescape latency (time to find the submer ged escape platform) was determined by manual video analysis (due to automated det ect ion settings unable to discern all mice coat c ol or s – bl a c k, white a nd brown - against the opaque water).
Mice were individually placed within a cage and taken to a dimly lit room containing an open field arena 50 x 50 cm in size. They were gi ve n 10 min prior to be i ng placed within the arena, where f or a period of 5 min they were allowed to explore. Two weeks later, this was repeated. The mice were filmed with an Ikegami ICD-49E camera with EthoVision 14 (Noldus Information Technology). Th e fl oor was ei ther whit e or black,dependingon mous e coat c ol or, to allow automatic analysisof movement par am et ers, apar t from rearing which was manually counted. […]

`Cc1ccc(-c2cn3cccc(C)c3n2)cc1S(=O)(=O)N1CCNCC1` [YB-537] was tested, and the “MWM escape latency (individual mice)” value (both sexes, Day 1) was 60.0 (8×) and 29.4 and 26.8 and 55.1 and 57.2 and 53.5 (2×) and 41.6 and 50.9, the “MWM escape latency (individual mice)” value (both sexes, Day 2) was 60.0 (6×) and 28.0 and 23.5 and 59.7 and 50.7 and 45.3 and 33.5 and 15.1 and 54.5 and 36.1 and 58.0 and the “MWM escape latency (individual mice)” value (both sexes, Day 3) was 48.7 and 59.3 and 42.1 and 33.7 and 34.3 and 45.6 and 37.0 and 60.0 (2×) and 49.6 and 35.1 and 26.9 and 13.8 and 47.4 and 47.7 and 54.0. For the same molecule, the “MWM escape latency (individual mice)” value (both sexes, Day 4, in s (unit assumed)) was 44.6 and 57.9 and 24.5 and 37.5 and 31.1 and 37.6 and 51.0 and 60.0 and 52.1 and 34.3 and 5.9 and 14.1 and 13.3 and 23.0 and 48.5 and 53.9, the “MWM escape latency (individual mice)” value (both sexes, Day 5, in s (unit assumed)) was 19.0 and 40.4 and 25.1 and 16.2 and 18.6 and 45.8 and 60.0 and 50.4 and 37.0 and 38.2 and 5.7 and 19.6 and 7.3 and 21.1 and 16.8 and 48.8 and the “MWM escape latency (individual mice)” value (both sexes, Day 6) was 39.3 and 17.9 and 20.3 and 12.9 and 14.8 and 34.0 and 50.7 and 60.0 and 14.1 and 16.8 and 5.6 and 7.2 (2×) and 16.3 and 19.0 and 27.9. The “MWM escape latency (individual mice)” value (males, Day 5, in s (unit assumed)) was 16.2 and 18.6 and 45.8 and 60.0 and the “spatial learning in MWM (escape latency over 6 days)” value (5xFAD, 50 mg/kg in drinking water, 1 month, both sexes) was “trend toward faster spatial learning”.

— PMC10541198, “Specific quinone reductase 2 inhibitors reduce metabolic burden and reverse Alzheimer’s disease phenotype in mice” (The Journal of Clinical Investigation, 2023)
